Measured values as given in patent US12029751B2, “Therapeutic agent for nervous system disease” (OSAKA UNIVERSITY, priority 2017, dated 2024).

Tested on: rat sciatic nerve crush injury model
Assay: Macrophage phenotypes after sciatic nerve injury (immunohistological evaluation, rat sciatic nerve crush injury model)
Type: in vivo
Parameters: Number of M2 macrophages: unit: per mm^2
Description: Effects of methylcobalamin on macrophage phenotypes after sciatic nerve injury were analyzed by an immunohistological evaluation method. Specifically, the analysis was carried out as follows. Using transverse nerve sections at 2.5 mm in the proximal direction, at the injury site, and at 2.5, 5.0, and 7.5 mm in the distal direction, macrophages were evaluated by immunofluorescence staining at 1, 3, 7, and 14 days after sciatic nerve injury. The proximal direction refers to a cell body side of an axon with respect to an injury site, and the distal direction refers to a terminal side of an axon with respect to an injury site. Each of the distances indicates a distance from the injury site (the same applies to Example 8). Macrophages were labeled with CD68, an M1 marker iNOS, and an M2 marker CD206. The proportion of M1 macrophage was calculated by the following formula: Proportion of M1 macrophage (%)=number of M1-marker positive macrophages per mm^2/number of macrophages per mm^2×100. A more detailed description will be provided below.
Six-week-old male Wistar rats (about 200 g) were used. The left sciatic nerve was exteriorized, and crush injury of the sciatic nerve was made on the proximal side by forceps. The nerve was crushed for 10 seconds three times at 10-second intervals. The fascia and skin were sutured using 3-0 nylon. A non-injury group which underwent only sciatic nerve exposure, an untreated group, and a methylcobalamin treatment group were compared. To administer methylcobalamin continuously, an osmotic minipump was placed and left in the dorsal subcutaneous space, and methylcobalamin was administered at a dose of 1 mg/kg/day. In an untreated group, physiological saline was administered instead of methylcobalamin according to the same procedure.
At 1, 3, 7, and 14 days after the surgery, rats were anesthetized with an anesthetic agent. The left sciatic nerve was collected, fixed with 4% PFA for 7 days and with 20% sucrose for 24 hours, and the fixed nerve was freeze-embedded. The embedded tissue was sliced into a 5-μm-thick slice in a nerve short-axis direction and placed on a glass slide. Slices were obtained from 5 positions of 2.5 mm in the proximal direction from an injured region, the injured region, and 2.5, 5.0, and 7.5 mm in the distal direction. The slices were dried for 1 hour and fixed with 95% methanol for 30 minutes. The fixed slices were blocked and allowed to react with primary antibodies at 4° C. overnight. The cells were further allowed to react with a secondary antibody at room temperature for 1 hour so that the nuclei were labeled with DAPI.
The primary antibodies used were a mouse anti-CD68 monoclonal antibody (Abcam), a rabbit anti-iNOS monoclonal antibody (Abcam), a rabbit anti-CD206 monoclonal antibody (Abeam), a rabbit anti-neurofilament 200 (NF 200) polyclonal antibody (SIGMA), and a mouse anti-myelin basic protein (MBP) monoclonal antibody (Calbiochem). The secondary antibodies used were an Alexa 488-labeled goat anti-mouse IgG antibody (Life Technologies), an Alexa 488-labeled goat anti-rabbit IgG antibody (Life Technologies), an Alexa 568-labeled goat anti-mouse IgG antibody (Life Technologies), and an Alexa 568-labeled goat anti-rabbit IgG antibody (Life Technologies).

[1] = POD1, 2.5 mm in the distal direction, 1 mg/kg/day
[2] = POD1, 2.5 mm in the proximal direction, 1 mg/kg/day
[3] = POD1, 5.0 mm in the distal direction, 1 mg/kg/day
[4] = POD1, 7.5 mm in the distal direction, 1 mg/kg/day
[5] = POD3, 2.5 mm in the distal direction, 1 mg/kg/day
[6] = POD3, 2.5 mm in the proximal direction, 1 mg/kg/day
[7] = POD3, 5.0 mm in the distal direction, 1 mg/kg/day
[8] = POD3, 7.5 mm in the distal direction, 1 mg/kg/day
[9] = POD7, 2.5 mm in the distal direction, 1 mg/kg/day
[10] = POD7, 2.5 mm in the proximal direction, 1 mg/kg/day
[11] = POD7, 5.0 mm in the distal direction, 1 mg/kg/day
[12] = POD7, 7.5 mm in the distal direction, 1 mg/kg/day
[13] = POD14, 2.5 mm in the distal direction, 1 mg/kg/day
[14] = POD14, 2.5 mm in the proximal direction, 1 mg/kg/day
[15] = POD14, 5.0 mm in the distal direction, 1 mg/kg/day
[16] = POD14, 7.5 mm in the distal direction, 1 mg/kg/day
[17] = POD14, Injury site, 1 mg/kg/day

With `C/C1=C2/[N-][C@H]([C@H](CC(N)=O)[C@@]2(C)CCC(=O)NC[C@@H](C)OP(=O)([O-])O[C@H]2[C@@H](O)[C@@H](n3cnc4cc(C)c(C)cc43)O[C@@H]2CO)[C@]2(C)N=C(/C(C)=C3N=C(/C=C4N=C1[C@@H](CCC(N)=O)C\4(C)C)[C@@H](CCC(N)=O)[C@]\3(C)CC(N)=O)[C@@H](CCC(N)=O)[C@]2(C)CC(N)=O.[CH3-].[Co+3]` [MeCbl, methylcobalamin] the “Number of M2 macrophages” value (POD1, 2.5 mm in the distal direction) was 46.53, the M1 macrophage ratio [1] was 0.183 and the M2 macrophage ratio [1] was 0.658. For the same molecule, the “Number of M1 macrophages” value [1] was 10.27 per mm^2, the Number of macrophages [1] was 64.37 per mm^2 and the “Number of M2 macrophages” value (POD1, 2.5 mm in the proximal direction) was 32.72. For the same molecule, the M1 macrophage ratio [2] was 0.095, the M2 macrophage ratio [2] was 0.743 and the “Number of M1 macrophages” value [2] was 3.42 per mm^2. The Number of macrophages [2] was 40.53 per mm^2, the “Number of M2 macrophages” value (POD1, 5.0 mm in the distal direction) was 33.90 and the M1 macrophage ratio [3] was 0.109. For the same molecule, the M2 macrophage ratio [3] was 0.765, the “Number of M1 macrophages” value [3] was 4.40 per mm^2 and the Number of macrophages [3] was 43.67 per mm^2. For the same molecule, the “Number of M2 macrophages” value (POD1, 7.5 mm in the distal direction) was 32.83, the M1 macrophage ratio [4] was 0.097 and the M2 macrophage ratio [4] was 0.777. The “Number of M1 macrophages” value [4] was 3.21 per mm^2, the Number of macrophages [4] was 35.68 per mm^2 and the “Number of M2 macrophages” value (POD1, Injury site) was 139.28. For the same molecule, the M1 macrophage ratio (POD1, Injury site, 1 mg/kg/day) was 0.195, the M2 macrophage ratio (POD1, Injury site, 1 mg/kg/day) was 0.431 and the “Number of M1 macrophages” value (POD1, Injury site, 1 mg/kg/day) was 63.55 per mm^2. The Number of macrophages (POD1, Injury site, 1 mg/kg/day) was 336.86 per mm^2, the “Number of M2 macrophages” value (POD3, 2.5 mm in the distal direction) was 147.74 and the M1 macrophage ratio [5] was 0.165. For the same molecule, the M2 macrophage ratio [5] was 0.693, the “Number of M1 macrophages” value [5] was 23.50 per mm^2 and the Number of macrophages [5] was 181.38 per mm^2. The “Number of M2 macrophages” value (POD3, 2.5 mm in the proximal direction) was 43.76, the M1 macrophage ratio [6] was 0.068 and the M2 macrophage ratio [6] was 0.708. For the same molecule, the “Number of M1 macrophages” value [6] was 3.04 per mm^2, the Number of macrophages [6] was 48.52 per mm^2 and the “Number of M2 macrophages” value (POD3, 5.0 mm in the distal direction) was 117.16. The M1 macrophage ratio [7] was 0.145, the M2 macrophage ratio [7] was 0.659 and the “Number of M1 macrophages” value [7] was 13.13 per mm^2. The Number of macrophages [7] was 135.88 per mm^2, the “Number of M2 macrophages” value (POD3, 7.5 mm in the distal direction) was 115.48 and the M1 macrophage ratio [8] was 0.186. The M2 macrophage ratio [8] was 0.694, the “Number of M1 macrophages” value [8] was 15.57 per mm^2 and the Number of macrophages [8] was 124.99 per mm^2. The “Number of M2 macrophages” value (POD3, Injury site) was 603.12, the M1 macrophage ratio (POD3, Injury site, 1 mg/kg/day) was 0.163 and the M2 macrophage ratio (POD3, Injury site, 1 mg/kg/day) was 0.479. For the same molecule, the “Number of M1 macrophages” value (POD3, Injury site, 1 mg/kg/day) was 198.96 per mm^2, the Number of macrophages (POD3, Injury site, 1 mg/kg/day) was 1261.77 per mm^2 and the Number of macrophages (POD3, Injury site, 1 mg/kg/day, listed as methylcobalamin) was “significantly decreased”. The “Number of M2 macrophages” value (POD7, 2.5 mm in the distal direction) was 457.16, the M1 macrophage ratio [9] was 0.043 and the M2 macrophage ratio [9] was 0.463. The “Number of M1 macrophages” value [9] was 37.09 per mm^2, the Number of macrophages [9] was 921.92 per mm^2 and the “Number of M2 macrophages” value (POD7, 2.5 mm in the proximal direction) was 26.25. The M1 macrophage ratio [10] was 0.049, the M2 macrophage ratio [10] was 0.642 and the “Number of M1 macrophages” value [10] was 1.54 per mm^2. For the same molecule, the Number of macrophages [10] was 36.63 per mm^2, the “Number of M2 macrophages” value (POD7, 5.0 mm in the distal direction) was 432.13 and the M1 macrophage ratio [11] was 0.039. The M2 macrophage ratio [11] was 0.505, the “Number of M1 macrophages” value [11] was 25.29 per mm^2 and the Number of macrophages [11] was 763.17 per mm^2. For the same molecule, the “Number of M2 macrophages” value (POD7, 7.5 mm in the distal direction) was 327.16, the M1 macrophage ratio [12] was 0.045 and the M2 macrophage ratio [12] was 0.506. For the same molecule, the “Number of M1 macrophages” value [12] was 22.71 per mm^2, the Number of macrophages [12] was 584.14 per mm^2 and the “Number of M2 macrophages” value (POD7, Injury site) was 654.63. The M1 macrophage ratio (POD7, Injury site, 1 mg/kg/day) was 0.046, the M2 macrophage ratio (POD7, Injury site, 1 mg/kg/day) was 0.571 and the “Number of M1 macrophages” value (POD7, Injury site, 1 mg/kg/day) was 47.56 per mm^2. For the same molecule, the Number of macrophages (POD7, Injury site, 1 mg/kg/day) was 1096.37 per mm^2, the Number of macrophages (POD7, Injury site, 1 mg/kg/day, listed as methylcobalamin) was “significantly decreased” and the “Number of M2 macrophages” value (POD14, 2.5 mm in the distal direction) was 443.91. The M1 macrophage ratio [13] was 0.033, the M2 macrophage ratio [13] was 0.459 and the “Number of M1 macrophages” value [13] was 27.86 per mm^2. The Number of macrophages [13] was 898.81 per mm^2, the “Number of M2 macrophages” value (POD14, 2.5 mm in the proximal direction) was 35.65 and the M1 macrophage ratio [14] was 0.039. For the same molecule, the M2 macrophage ratio [14] was 0.638, the “Number of M1 macrophages” value [14] was 2.34 per mm^2 and the Number of macrophages [14] was 51.79 per mm^2. The “Number of M2 macrophages” value (POD14, 5.0 mm in the distal direction) was 434.68, the M1 macrophage ratio [15] was 0.029 and the M2 macrophage ratio [15] was 0.487. The “Number of M1 macrophages” value [15] was 22.35 per mm^2, the Number of macrophages [15] was 827.51 per mm^2 and the “Number of M2 macrophages” value (POD14, 7.5 mm in the distal direction) was 417.86. The M1 macrophage ratio [16] was 0.024, the M2 macrophage ratio [16] was 0.487 and the “Number of M1 macrophages” value [16] was 15.59 per mm^2. For the same molecule, the Number of macrophages [16] was 752.29 per mm^2, the “Number of M2 macrophages” value (POD14, Injury site) was 560.45 and the M1 macrophage ratio [17] was 0.025. For the same molecule, the M2 macrophage ratio [17] was 0.610, the “Number of M1 macrophages” value [17] was 21.33 per mm^2 and the Number of macrophages [17] was 899.57 per mm^2. For the same molecule, the Number of macrophages (POD14, Injury site, 1 mg/kg/day, listed as methylcobalamin) was “significantly decreased”, the “numbers of M1 macrophages as compared to the untreated group” value (all evaluation days (1, 3, 7, 14 days), 1 mg/kg/day) was “significantly decreased” and the “numbers of M1 macrophages as compared to the untreated group” value (distal portions, 7 and 14 days after the surgery, 1 mg/kg/day) was “significant differences”. For the same molecule, the “number of macrophages as compared to the untreated group” value (distal positions, 14 days after the surgery, 1 mg/kg/day) was “significant difference” and the “numbers of M2 macrophages as compared to the untreated group” value (injury site, 1, 7 and 14 days after the surgery, 1 mg/kg/day) was “significantly increased”.
